Values after ≈ are worked out from the molar mass of the structure shown. Like-named read-outs stand apart in the source and are kept apart here.
Tests used:
[1] = test system: K. pneumoniae ATCC BAA-1705 KPC-2-positive; assay: checkerboard microdilution, antibiotic plus tested agent; type: cell-based, Klebsiella pneumoniae
Outline: (§1)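 Chequerboard layout: tested agent in three two-fold steps (4–16 mg/L) crossed with seven β-lactam dilutions (1–64 mg/L), meropenem for KPC strains and ceftazidime for the cAmpC strain. FICI from first non-growth wells, off-scale MICs raised one doubling; ≤0.5 counts as synergy, >4 antagonism.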

[2] = test system: K. pneumoniae 81 KPC-3-positive; assay: as above; type: cell-based, Klebsiella pneumoniae
Outline: as §1

[3] = test system: K. pneumoniae 83 KPC-3-positive, CTX-M-3-positive; assay: as above; type: cell-based, Klebsiella pneumoniae
Outline: as §1

[4] = test system: E. coli 77 CMY-2-positive; assay: as above; type: cell-based, Escherichia coli
Outline: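 Read-out is the antibiotic MIC with agent present, plus FICI = combined/alone MIC ratios summed for both partners. Meropenem pairs served for carbapenemase strains and ceftazidime pairs for the AmpC strain. Agent or PBA was tested at 4–16 mg/L.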

[5] = test system: K. pneumoniae ATCC 700603 ESBL-positive; assay: combination disc test CDT-ESBL; type: cell-based; conditions: Klebsiella pneumoniae
[6] = MTT-based viability assay; type: cell-based; conditions: human, 72 h; for viability at 72 h, 16 mg/L / viability at 72 h, 32 mg/L / viability at 72 h, 64 mg/L / viability at 72 h, 12.5 mg/L / viability at 72 h, 25 mg/L / viability at 72 h, 50 mg/L: read-out: Viability of MRC-5 cells (% of viable cells ± SD)
Outline: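 Percent viable cells relative to control, measured in triplicate by MTT read-out at 570 nm. Cells: MRC-5 human fibroblasts cultured at 37 °C, 5% CO2 in MEME plus 10% FBS.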

C. krusei ATCC 6258 = assay: antifungal activity (disc-diffusion, MIC, MFC); type: cell-based, Candida krusei; conditions: Pichia kudriavzevii, ATCC6258; for MIC: fluconazole by Etest; for zone of inhibition at 0.4 mg/disc: 0.4 mg per disc, 9 mm disc (fluconazole 0.025 mg, 6 mm disc), - no zone, read-out: Diameter of inhibition zone
Outline: (§2)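 Reference drugs were nitrofurantoin for Gram-negative rods, linezolid for Gram-positive bacteria and fluconazole for yeasts. Test agents were dissolved in DMSO and assessed by disc diffusion (0.4 mg/disc), MIC, and MBC or MFC per EUCAST/CLSI.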

[7] = test system: C. parapsilosis ATCC 22019; assay: antifungal activity (disc-diffusion, MIC, MFC); type: cell-based, Candida parapsilosis; conditions: Lodderomyces parapsilosis, ATCC22019; for MIC: fluconazole by Etest; for zone of inhibition at 0.4 mg/disc: 0.4 mg per disc, 9 mm disc (fluconazole 0.025 mg, 6 mm disc), - no zone, read-out: Diameter of inhibition zone
Outline: as §2

[8] = test system: E. coli 77 CMY-2-positive; assay: combination disc test CDT-AmpC; type: cell-based; conditions: Escherichia coli, read-out: Diameter of inhibition zone, CAZ-30 disc with agent
[9] = test system: P. aeruginosa MUW 700 AmpC(+); assay: screening test of direct antimicrobial activity (STDA), disc-diffusion; type: cell-based; conditions: Pseudomonas aeruginosa; 0.3 mg per disc; - no zone; read-out: Diameter of inhibition zone around disc with tested agent
Method: (§3) Prior to combination disc tests, screening tests of direct antimicrobial activity (STDA) of the tested agent against β-lactamase-producing strains were performed by the disc-diffusion method. Discs with 0.3 mg, 0.1 mg, and 0.03 mg of each agent were examined. The highest amount of an agent that caused no effect on bacterial growth was used in further experiments.

E. coli 77 CMY-2(+) = assay: as above; type: cell-based; conditions: Escherichia coli; 0.3 mg per disc; - no zone; read-out: Diameter of inhibition zone around disc with tested agent
Method: as §3

[10] = ATCC700603, agent 0.3 mg per disc, read-out: Diameter of inhibition zone, CAZ-30 disc with agent

Row | MIC (C. krusei ATCC 6258) [mg/L] | MIC [7] [mg/L] | SMILES | Average FICI with ERT [1] | Average FICI with IMI [1] | Average FICI with MEM [1] | The lowest FICI with ERT [1] | The lowest FICI with IMI [1] | The lowest FICI with MEM [1] | Average FICI with ERT [2] | Average FICI with IMI [2] | Average FICI with MEM [2] | The lowest FICI with ERT [2] | The lowest FICI with IMI [2] | Average FICI with ceftazidime [4] | The lowest FICI with ceftazidime [4] | zone of inhibition at 300 µg/disc [5, 10] [mm] | zone of inhibition at 300 µg/disc ([8]; agent 0.3 mg per disc) [mm] | viability at 72 h, 12.5 mg/L ([6]; MRC-5 human fibroblasts) [%] | viability at 72 h, 25 mg/L ([6]; MRC-5 human fibroblasts) [%] | viability at 72 h, 50 mg/L ([6]; MRC-5 human fibroblasts) [%] | also measured
1 | > 400 | > 400 | OB(O)c1cc(F)cc(B(O)O)c1 [2b] | – | – | – | – | – | – | – | – | – | – | – | 0.17 | 0.10 | 16 | – | 108 ± 1.1 | 87.9 ± 1.7 | 73.8 ± 1.9 | zone of inhibition at 100 µg/disc ([8]; agent 0.1 mg per disc): 21 mm; zone of inhibition at 300 µg/disc [9]: 11 mm; zone of inhibition at 300 µg/disc (E. coli 77 CMY-2(+)): 13 mm
2 | 100 (≈ 544 µM) | 200 (≈ 1090 µM) | OB(O)c1cccc(F)c1B(O)O [3b] | – | – | – | – | – | – | – | – | – | – | – | 0.43 | 0.27 | 16 | 25 | 98.1 ± 6.1 | 91.2 ± 13.5 | 87.1 ± 8 | –
3 | 200 (≈ 1090 µM) | 100 (≈ 544 µM) | OB(O)c1ccc(F)cc1B(O)O [3c] | 0.43 | 0.35 | 0.51 | 0.27 | 0.26 | 0.51 | 0.22 | 0.18 | 0.18 | 0.15 | 0.14 | – | – | 16 | 20 | 97.1 ± 6.9 | 106 ± 4.5 | 82.3 ± 12.9 | The lowest FICI with MEM [2]: 0.14; Average FICI with ERT [3]: 0.43; Average FICI with IMI [3]: 0.35; Average FICI with MEM [3]: 0.22; The lowest FICI with ERT [3]: 0.27; The lowest FICI with IMI [3]: 0.26; The lowest FICI with MEM [3]: 0.15
4 | > 400 | > 400 | OB(O)c1ccc(B(O)O)c(B(O)O)c1 [4b, benzene-1,2,4-triboronic] | – | – | – | – | – | – | – | – | – | – | – | 0.43 | 0.27 | 14 | 21 | 114 ± 1.8 | 106.4 ± 0.1 | 97.3 ± 13.6 | –
5 | > 400 | > 400 | OB(O)c1ccsc1B(O)O [5a, thiophene-2,3-diboronic acid] | – | – | – | – | – | – | – | – | – | – | – | 0.43 | 0.27 | 16 | 20 | 88.6 ± 9.2 | 87.1 ± 1.6 | 79.2 ± 5.1 | –
6 | 50 (≈ 325 µM) | 50 (≈ 325 µM) | OB(O)c1ccccc1S [7c, 2-mercaptophenylboronic acid] | – | – | – | – | – | – | – | – | – | – | – | – | – | 15 | 16 | 56.4 ± 3 | 6.6 ± 5.1 | 0 | viability at 72 h ([6]; MRC-5 human fibroblasts, 12.5, 25 and 50 mg/L): 0 to 56.4%; zone of inhibition at 0.4 mg/disc (C. krusei ATCC 6258): 16 mm; zone of inhibition at 0.4 mg/disc [7]: 29 mm
7 | – | – | OB(O)c1ccccc1 [PBA, phenylboronic acid, reference compound] | 0.85 | 0.43 | 0.43 | 0.52 | 0.27 | 0.27 | 0.51 | 0.43 | 0.51 | 0.51 | 0.27 | 0.30 | 0.15 | – | – | – | – | – | The lowest FICI with MEM [2]: 0.51; Average FICI with ERT [3]: 0.51; Average FICI with IMI [3]: 0.68; Average FICI with MEM [3]: 0.35; The lowest FICI with ERT [3]: 0.51; The lowest FICI with IMI [3]: 0.51; The lowest FICI with MEM [3]: 0.26; zone of inhibition at 300 µg/disc ([5]; ATCC700603, read-out: Diameter of inhibition zone, CAZ-30 disc with agent): 14 mm; viability at 72 h, 12.5 mg/L [6]: 81.5 ± 3.7%; viability at 72 h, 25 mg/L [6]: 79.1 ± 4.4%; viability at 72 h, 50 mg/L [6]: 58.7 ± 4.3%; zone of inhibition at 300 µg/disc [8]: 24 mm

Row | SMILES | MIC (C. krusei ATCC 6258) [mg/L] | MIC [7] [mg/L] | Average FICI with ERT [1] | Average FICI with IMI [1] | Average FICI with MEM [1] | The lowest FICI with ERT [1] | The lowest FICI with IMI [1] | The lowest FICI with MEM [1] | Average FICI with ERT [2] | Average FICI with IMI [2] | Average FICI with MEM [2] | The lowest FICI with ERT [2] | The lowest FICI with IMI [2] | Average FICI with ceftazidime [4] | The lowest FICI with ceftazidime [4] | zone of inhibition at 300 µg/disc [5, 10] [mm] | zone of inhibition at 300 µg/disc ([8]; agent 0.3 mg per disc) [mm] | viability at 72 h, 12.5 mg/L ([6]; MRC-5 human fibroblasts) [%] | viability at 72 h, 25 mg/L ([6]; MRC-5 human fibroblasts) [%] | viability at 72 h, 50 mg/L ([6]; MRC-5 human fibroblasts) [%] | also measured
8 | OB(O)c1ccc(B(O)O)cc1 [1a] | > 400 | > 400 | 0.43 | 0.43 | 0.30 | 0.27 | 0.27 | 0.15 | 0.20 | 0.22 | 0.24 | 0.08 | 0.15 | 0.30 | 0.15 | 17 | 21 | – | – | – | The lowest FICI with MEM [2]: 0.08; Average FICI with ERT [3]: 0.35; Average FICI with IMI [3]: 0.35; Average FICI with MEM [3]: 0.39; The lowest FICI with ERT [3]: 0.26; The lowest FICI with IMI [3]: 0.26; The lowest FICI with MEM [3]: 0.15; viability at 72 h, 16 mg/L ([6]; MRC-5 human fibroblasts): 113 ± 12.5%; viability at 72 h, 32 mg/L ([6]; MRC-5 human fibroblasts): 103 ± 11.8%; viability at 72 h, 64 mg/L ([6]; MRC-5 human fibroblasts): 89.9 ± 11.4%
9 | OB(O)c1cccc(B(O)O)c1 [2a] | > 400 | > 400 | – | – | – | – | – | – | – | – | – | – | – | 0.22 | 0.15 | 16 | 22 | 94.4 ± 2.2 | 75.2 ± 10.3 | 73.1 ± 13.6 | –
10 | OB(O)c1cc(C(F)(F)F)cc(B(O)O)c1F [2e] | > 400 | 400 (≈ 1590 µM) | – | – | – | – | – | – | – | – | – | – | – | – | – | 16 | 19 | 96.6 ± 6.4 | 84.4 ± 4.8 | 63.1 ± 1.4 | –
11 | OB(O)c1ccccc1B(O)O [3a, phenylene-1,2-diboronic acid] | 400 (≈ 2410 µM) | 25 (≈ 151 µM) | 0.32 | 0.19 | 0.32 | 0.17 | 0.15 | 0.17 | 0.14 | 0.13 | 0.10 | 0.07 | 0.10 | 0.44 | 0.29 | 18 | 23 | – | – | – | The lowest FICI with MEM [2]: 0.07; Average FICI with ERT [3]: 0.17; Average FICI with IMI [3]: 0.17; Average FICI with MEM [3]: 0.13; The lowest FICI with ERT [3]: 0.10; The lowest FICI with IMI [3]: 0.10; The lowest FICI with MEM [3]: 0.06; viability at 72 h, 16 mg/L ([6]; MRC-5 human fibroblasts): 110 ± 9.3%; viability at 72 h, 32 mg/L ([6]; MRC-5 human fibroblasts): 106 ± 10.6%; viability at 72 h, 64 mg/L ([6]; MRC-5 human fibroblasts): 76.2 ± 4.2%
12 | OB(O)c1ccc(C(F)(F)F)cc1B(O)O [3e] | 25 (≈ 107 µM) | 12.5 (≈ 53.5 µM) | – | – | – | – | – | – | – | – | – | – | – | – | – | 14 | 17 | 98.8 ± 25.6 | 92.9 ± 2.7 | 64.4 ± 0.4 | zone of inhibition at 0.4 mg/disc (C. krusei ATCC 6258): 23 mm; zone of inhibition at 0.4 mg/disc [7]: 30 mm

From publication PMC10648349, “Aromatic Diboronic Acids as Effective KPC/AmpC Inhibitors” (Molecules, 2023)
